Measured values from paper PMC8122671, “New Succinimides with Potent Anticancer Activity: Synthesis, Activation of Stress Signaling Pathways and Characterization of Apoptosis in Leukemia and Cervical Cancer Cells” (International Journal of Molecular Sciences, 2021).
“Also recorded” adds a separate entry of the source. Read-outs that look alike come from different tables or passages of the source.

Assays:
[1] = tested on: plasmid DNA (pcDNA3.1HisC); assay: DNA-cleavage protection assay (BamHI digestion of plasmid DNA); format: biochemical; settings: 100 µM, overnight 37 °C, then BamHI 3 h
Experimental: A DNA-cleavage protection assay has been successfully used for the identification of compounds that bind DNA either covalently or noncovalently. Such binding may result in DNA being less susceptible to enzymatic cleavage. […] It was also reported that naphtalenoimides or indolomaleimides intercalate into DNA [13, 14]. […] In CD studies, a synthetic 23-nt duplex DNA or bovine thymus DNA was incubated with compound Ic or daunorubicin (reference compound). […] Using a DNA-cleavage protection assay, we investigated whether selected compounds 2c, 2d, and 2f and 3c, 3d, and 3f interact with a plasmid DNA, resulting in increased resistance to endonucleolytic cleavage. Plasmid DNA (pcDNA3.1HisC) containing a single BamHI cleavage site was incubated with test compounds and subsequently digested with BamH1 restriction endonuclease. Daunorubicin (a strong DNA-intercalating agent) was used as a reference compound. Non-digested plasmid DNA existed predominantly in the circular form; however, the superhelical and linear forms were also detected (Figure 5, lane 1). […] This observation can be explained by the higher lipophilicity of 3c, 3d, and 3f compared to 2c, 2d, and 2f, which may facilitate their more efficient binding to DNA.
First, 0.5 μg of plasmid DNA (pcDNAHisC, total length 5.5 kbp) containing a unique BamHI restriction site was dissolved in a 1× BamHI reaction buffer and incubated overnight at 37 °C with the test compounds or daunorubicin. Daunorubicin, a strong intercalating agent, was used as a positive control. The concentration of the test compounds and daunorubicin samples was 100 µM. In the next step, the reaction mixtures were digested with BamHI restriction endonuclease (2 U/μL) for 3 h at 37 °C. The total reaction volume was 10 μL. Products of the reaction were subjected to the 1% agarose gel electrophoresis in TBE buffer. The gel was stained with ethidium bromide, and DNA fragments were visualized under a UV lamp (GBox, Syngene).

[2] = tested on: HeLa (human cervix carcinoma) cells; assay: MTT cytotoxicity assay, HeLa; format: cell-based; settings: 48 h incubation, average (SD) of three experiments, read-out: IC50 HeLa
[3] = tested on: K562 (myelogenous leukemia cell line); assay: MTT cytotoxicity assay, K562; format: cell-based, human; settings: 48 h incubation, average (SD) of three experiments, read-out: IC50 K562
[4] = tested on: MOLT-4 (Human T-Lymphoid Cell Line); assay: MTT cytotoxicity assay, MOLT-4; format: cell-based; settings: MOLT-4, 48 h incubation, average (SD) of three experiments, read-out: IC50 MOLT-4
[5] = tested on: caspase 3/7 in K562 cells; assay: Caspase-3/7 activity assay (Apo-ONE) in K562 cells; format: cell-based, human; settings: K562, 18 h, test compound at 5xIC50, staurosporine 1 μM; vs 1% DMSO
Experimental: After incubation for 18 h, K562 cells were lysed and the activity of caspase 3/7 was measured using a profluorescent peptide substrate.
First, 20 × 10^3 K562 cells were seeded on each well of a 96-well plate in RPMI 1640 medium supplemented with 10% fetal calf serum and antibiotics. Cells were grown for 24 h at 37 °C and 5% CO2. Test dicarboximides were dissolved in DMSO and added to cell culture to the final concentration of 5 × IC50. […] Cells were exposed to test compounds for 18 h at 37 °C and 5% CO2. Subsequently, the activity of caspase 3 and 7 was measured by Apo-ONE® Homogeneous Caspase-3/7 Assay (Promega, Madison, WI, USA) according to the manufacturer’s instructions. Briefly, the cells were lysed and incubated for 1.5 h with a profluorescent substrate for caspase 3 and 7. Next, the fluorescence was read at an excitation wavelength of 485 nm and emission of 520 nm with a FLUOStar Omega microplate reader (BMG-Labtech, Offenburg, Germany).

[6] = tested on: HUVEC (normal endothelial) cells; assay: MTT cytotoxicity assay, HUVEC; format: cell-based; settings: Homo sapiens, 48 h incubation, average (SD) of three experiments, read-out: IC50 HUVEC

## CCC12C(=O)C(CC)(C(c3ccccc3)=C1c1ccccc1)C1C(=O)N(CC(O)CNC(C)(C)C)C(=O)C12 (centres unmarked) [2c, 4-[3-(tert-butylamino)-2-hydroxypropyl]-1,7-diethyl-8,9-diphenyl-4-azatricyclo [5.2.1.0^2,6]dec-8-ene-3,5,10-trione]
[1]
  protection of plasmid DNA from BamHI digestion (circular DNA left): the circular form was also detected
[2]
  IC50: 3.2 µM
[3]
  IC50: 4 µM
[3]; Homo sapiens, K562, 48 h
  IC50: < 6 µM
[4]
  IC50: 2.5 µM
[5]
  activity of caspase 3/7: over eight-fold increase in caspase activity; also recorded: activated caspase 3 and 7
[6]
  IC50: 3.3 µM

## CC(C)(C)NCC(O)CN1C(=O)C2C(C1=O)C1(c3ccccc3)CC2(c2ccccc2)C(c2ccccc2)=C1c1ccccc1 (centres unmarked) [3c, 4-[3-(tert-butylamino)-2-hydroxypropyl]-1,7,8,9-tetraphenyl-4-azatricyclo[5.2.1.0^2,6]dec-8-ene-3,5-dione]
[1]
  protection of plasmid DNA from BamHI digestion (circular DNA left): interaction seems to be stronger
[2]
  IC50: 2 µM
[4]
  IC50: 2.6 µM
[5]
  activity of caspase 3/7: activated caspase 3/7 to a lesser extent; also recorded: activated caspase 3 and 7
[6]
  IC50: 0.4 µM

## CCN(CC)CC(O)CN1C(=O)C2C(C1=O)C1(CC)C(=O)C2(CC)C(c2ccccc2)=C1c1ccccc1 (centres unmarked) [2d, 4-[3-(diethylamino)-2-hydroxypropyl]-1,7-diethyl-8,9-diphenyl-4-azatricyclo [5.2.1.0^2,6]dec-8-ene-3,5,10-trione]
[1]
  protection of plasmid DNA from BamHI digestion (circular DNA left): the circular form was also detected
[2]
  IC50: 18 µM
[3]
  IC50: 5.8 µM
[3]; Homo sapiens, K562, 48 h
  IC50: < 6 µM
[4]
  IC50: 14 µM
[5]
  activity of caspase 3/7: over eight-fold increase in caspase activity; also recorded: activated caspase 3 and 7
[6]
  IC50: 3.6 µM

## CCN(CC)CC(O)CN1C(=O)C2C(C1=O)C1(c3ccccc3)CC2(c2ccccc2)C(c2ccccc2)=C1c1ccccc1 (centres unmarked) [3d, 4-[3-(diethylamino)-2-hydroxypropyl]-1,7,8,9-tetraphenyl-4-azatricyclo[5.2.1.0^2,6]dec-8-ene-3,5-dione]
[1]
  protection of plasmid DNA from BamHI digestion (circular DNA left): interaction seems to be stronger
[2]
  IC50: 1.9 µM
[3]
  IC50: 3.2 µM
[3]; Homo sapiens, K562, 48 h
  IC50: < 6 µM
[4]
  IC50: 2.2 µM
[5]
  activity of caspase 3/7: activated caspase 3/7 to a lesser extent; also recorded: activated caspase 3 and 7
[6]
  IC50: 0.3 µM
